Converted amounts (≈) assume the structure as drawn. The source made the active and inactive calls. The calls are words filed in the database; no cut-off is given here.
Tests used:
[1] = Ratio of plasma concentration in Lewis rat model of MIA at 30 mg/kg, po bid administered post 3 days MIA induction measured after 12 hrs of last dosage on day 7 to IC50 for human ADAMTS5 in presence of Lewis rat plasma; type: ADME, organism-based; conditions: in vivo
Rattus norvegicus [2] = assay: Reduction in ADAMTS-4/ADAMTS-5 mediated aggrecan cleavage products in Lewis rat model of MIA assessed as aggrecanase-cleaved fragments at 1.44 mg/mL, sc administered through infusion pump post 3 days MIA induction measured after 4 hrs of last dosage on day 7 by NITEGE sandwich ELISA; type: functional
[3] = Plasma concentration in Lewis rat model of MIA at 1.44 mg/mL, sc administered through infusion pump post 3 days MIA induction; type: ADME, organism-based
[4] = Ratio of plasma concentration in Lewis rat model of MIA at 4.3 mg/mL, sc administered through infusion pump post 3 days MIA induction to IC50 for human ADAMTS5 in presence of rat plasma; type: ADME, organism-based; conditions: in vivo, 72 h
Rattus norvegicus [5] = assay: Reduction in ADAMTS-4/ADAMTS-5 mediated aggrecan cleavage products in Lewis rat model of MIA assessed as aggrecanase-cleaved fragments at 4.3 mg/mL, sc administered through infusion pump post 3 days MIA induction measured after 4 hrs of last dosage on day 7 by NITEGE sandwich ELISA; type: functional
[6] = Ratio of plasma concentration in Lewis rat model of MIA at 10 mg/mL, sc administered through infusion pump post 3 days MIA induction to IC50 for human ADAMTS5 in presence of rat plasma; type: ADME, organism-based; conditions: in vivo, 72 h
[7] = Dissociation constant, basic pKa of the compound; type: physicochemical
[8] = Solubility of the compound at pH 7.7; type: physicochemical; conditions: buffer
[9] = Ratio of plasma concentration in Lewis rat model of MIA at […], […] administered through infusion pump post 3 days MIA induction to IC50 for human ADAMTS5 in presence of rat plasma; type: ADME, organism-based; conditions: in vivo, 72 h
[10] = Plasma concentration in Lewis rat model of MIA at 18 mg/mL, […] post 3 days MIA induction; type: ADME, organism-based
[11] = Ratio of plasma concentration in Lewis rat model of MIA at 60 mg/mL, […] post 3 days MIA induction to IC50 for human ADAMTS5 in presence of rat plasma; type: ADME, organism-based; conditions: in vivo, 72 h
Rattus norvegicus [12] = assay: Reduction in ADAMTS-4/ADAMTS-5 mediated aggrecan cleavage products in Lewis rat model of MIA assessed as aggrecanase-cleaved fragments at 3 mg/kg, po bid administered post 3 days MIA induction measured after 4 hrs of last dosage on day 7 by NITEGE sandwich ELISA relative to vehicle control; type: functional, organism-based
[13] = Oral bioavailability in rat at 10 mg/kg; type: ADME, organism-based; conditions: in vivo
Rattus norvegicus [14] = assay: Reduction in ADAMTS-4/ADAMTS-5 mediated aggrecan cleavage products in Lewis rat model of MIA assessed as aggrecanase-cleaved fragments at 30 mg/kg, po qd administered post 3 days MIA induction measured after 4 hrs of last dosage on day 7 by NITEGE sandwich ELISA; type: functional
Rattus norvegicus [15] = assay: Reduction in ADAMTS-4/ADAMTS-5 mediated aggrecan cleavage products in Lewis rat model of MIA assessed as aggrecanase-cleaved fragments at 60 mg/mL administered through infusion pump post 3 days MIA induction measured after 4 hrs of last dosage on day 7 by NITEGE sandwich ELISA; type: functional
[16] = Ratio of plasma concentration in Lewis rat model of MIA at 6 mg/mL, […] post 3 days MIA induction to IC50 for human ADAMTS5 in presence of rat plasma; type: ADME, organism-based; conditions: in vivo, 72 h

Row | Ratio [1] | concentration at 72 h [3] [nM] | Ratio [4] | Ratio [6] | pKa [7] | solubility [8] [µg/mL] | Ratio [9] | concentration at 72 h [10] [nM] | Ratio [11] | bioavailability [13] [%] | Ratio [16] | Structure (SMILES) | inhibition (INH) (Rattus norvegicus [2]) [%] | inhibition (INH) (Rattus norvegicus [5]) [%] | inhibition (Rattus norvegicus [12]) | inhibition in vivo at 30 mg/kg (Rattus norvegicus [14]) [%] | inhibition (INH) (Rattus norvegicus [15]) [%]
1 | 10 | 130 | 10 | 31 | 3.67 |  |  |  |  |  |  | Cn1ccnc1[C@]1(CNC(=O)c2cc3cc(C(F)(F)F)ccc3o2)NC(=O)NC1=O | 16 | 57 |  |  | 
2 |  |  |  |  |  | 16 (≈ 42 µM) | 3.2 | 2200 | 46 | 83 | 10 | O=C1NC(=O)[C@](CNC(=O)c2cc3cc(C(F)(F)F)ccc3o2)(C2CC2)N1 |  |  | Active | 52 | 59

Source: ChEMBL document CHEMBL4425099, “Use of Osmotic Pumps to Establish the Pharmacokinetic-Pharmacodynamic Relationship and Define Desirable Human Performance Characteristics for Aggrecanase Inhibitors” (J Med Chem, 2016)
